Here are results for eight molecules from patent publication US20260265238A1, “COMPOUNDS AND PHARMACEUTICAL COMPOSITIONS THAT DEGRADE SWI/SNF-RELATED MATRIX-ASSOCIATED ACTIN-DEPENDENT REGULATOR OF CHROMATIN SUBFAMILY A” (Plexium, Inc., priority 2023, published 2026).

Structures are written as SMILES.

As a reminder, the DC50 is the midpoint of the concentration-degradation curve. By inhibition is commonly meant how much of the control response was suppressed. Low readings indicate little suppression, high ones strong suppression.

The target of assay [1] is T1, SMARCA2-HiBiT HeLa cells (protein which is expressed from the SMARCA2 gene) (Homo sapiens, UniProt P51531).
T1 construct: protein which is expressed from the SMARCA2 and SMARCA4 genes; host or cells: HeLa (SMARCA2-HiBiT engineered line)
The experiment in a line: SMARCA2 degradation assay (HiBiT-fusion HeLa cell line, 24 h, luminescence). The class given is cell-based. In short, it runs like this:
(§1)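 HeLa cells carrying HiBiT-tagged SMARCA2 or SMARCA4 were seeded at 8,000 cells/well, allowed to attach overnight at 37° C., then given compounds in a 10-point dilution series (typically 10 μM to 300 pM) for 24 hours at 37° C. Remaining tagged protein was read by HiBiT lytic luminescence, and DC50s came from dose-response curves.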
In general terms: With HiBiT, luminescence reflects the tagged protein that the partner subunit can reach.

In assay [2] the target is T2, SMARCA4-HiBiT HeLa cells (protein which is expressed from the SMARCA4 gene) (Homo sapiens, UniProt P51532).
T2 construct: protein which is expressed from the SMARCA2 and SMARCA4 genes; host or cells: HeLa (SMARCA4-HiBiT engineered line)
As to the kind of experiment: SMARCA4 degradation assay (HiBiT-fusion HeLa cell line, 24 h, luminescence). Format: cell-based. In short, it runs like this:
as §1

T1 sequence (P51531 whole entry): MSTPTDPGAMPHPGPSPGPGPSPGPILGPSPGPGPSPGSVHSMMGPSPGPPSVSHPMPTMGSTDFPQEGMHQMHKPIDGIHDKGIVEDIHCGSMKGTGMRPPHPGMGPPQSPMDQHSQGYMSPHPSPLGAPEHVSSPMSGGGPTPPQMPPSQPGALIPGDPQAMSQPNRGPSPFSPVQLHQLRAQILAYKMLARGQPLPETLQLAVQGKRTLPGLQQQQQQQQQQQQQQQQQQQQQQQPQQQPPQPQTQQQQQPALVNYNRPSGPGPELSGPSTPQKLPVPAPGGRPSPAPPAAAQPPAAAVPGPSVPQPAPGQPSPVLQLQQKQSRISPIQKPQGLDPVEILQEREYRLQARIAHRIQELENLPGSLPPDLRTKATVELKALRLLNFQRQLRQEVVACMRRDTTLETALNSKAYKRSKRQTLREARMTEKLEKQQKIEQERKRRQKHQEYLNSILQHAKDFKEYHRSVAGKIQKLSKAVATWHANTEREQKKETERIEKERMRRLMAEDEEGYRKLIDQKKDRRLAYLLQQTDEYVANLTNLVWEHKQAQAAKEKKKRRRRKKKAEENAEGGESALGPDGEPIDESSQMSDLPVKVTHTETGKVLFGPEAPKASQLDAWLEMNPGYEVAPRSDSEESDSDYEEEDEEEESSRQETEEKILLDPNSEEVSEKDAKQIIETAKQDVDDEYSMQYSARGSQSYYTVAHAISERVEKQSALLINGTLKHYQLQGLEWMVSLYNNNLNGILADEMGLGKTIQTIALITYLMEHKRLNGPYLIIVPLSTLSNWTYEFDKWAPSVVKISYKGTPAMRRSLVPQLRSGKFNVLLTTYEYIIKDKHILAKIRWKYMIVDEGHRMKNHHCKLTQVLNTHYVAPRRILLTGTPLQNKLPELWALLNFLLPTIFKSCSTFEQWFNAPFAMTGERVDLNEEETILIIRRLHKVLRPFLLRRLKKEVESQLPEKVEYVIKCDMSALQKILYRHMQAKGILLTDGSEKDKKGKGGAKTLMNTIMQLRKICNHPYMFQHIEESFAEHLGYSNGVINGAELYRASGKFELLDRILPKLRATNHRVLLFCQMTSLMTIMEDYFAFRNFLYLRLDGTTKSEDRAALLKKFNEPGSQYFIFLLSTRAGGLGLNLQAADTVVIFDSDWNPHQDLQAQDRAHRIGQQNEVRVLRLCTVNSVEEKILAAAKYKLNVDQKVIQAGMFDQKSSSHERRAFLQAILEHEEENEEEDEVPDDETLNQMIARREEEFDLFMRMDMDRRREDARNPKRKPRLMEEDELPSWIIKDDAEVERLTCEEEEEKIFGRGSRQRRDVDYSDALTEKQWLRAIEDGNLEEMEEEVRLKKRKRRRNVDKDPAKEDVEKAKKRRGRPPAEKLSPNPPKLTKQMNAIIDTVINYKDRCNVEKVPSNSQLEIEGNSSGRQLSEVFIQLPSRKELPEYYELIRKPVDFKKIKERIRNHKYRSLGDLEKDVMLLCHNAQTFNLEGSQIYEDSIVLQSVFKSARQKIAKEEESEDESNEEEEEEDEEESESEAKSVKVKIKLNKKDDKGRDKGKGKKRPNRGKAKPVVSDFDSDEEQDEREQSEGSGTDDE
T2 sequence (P51532 whole entry): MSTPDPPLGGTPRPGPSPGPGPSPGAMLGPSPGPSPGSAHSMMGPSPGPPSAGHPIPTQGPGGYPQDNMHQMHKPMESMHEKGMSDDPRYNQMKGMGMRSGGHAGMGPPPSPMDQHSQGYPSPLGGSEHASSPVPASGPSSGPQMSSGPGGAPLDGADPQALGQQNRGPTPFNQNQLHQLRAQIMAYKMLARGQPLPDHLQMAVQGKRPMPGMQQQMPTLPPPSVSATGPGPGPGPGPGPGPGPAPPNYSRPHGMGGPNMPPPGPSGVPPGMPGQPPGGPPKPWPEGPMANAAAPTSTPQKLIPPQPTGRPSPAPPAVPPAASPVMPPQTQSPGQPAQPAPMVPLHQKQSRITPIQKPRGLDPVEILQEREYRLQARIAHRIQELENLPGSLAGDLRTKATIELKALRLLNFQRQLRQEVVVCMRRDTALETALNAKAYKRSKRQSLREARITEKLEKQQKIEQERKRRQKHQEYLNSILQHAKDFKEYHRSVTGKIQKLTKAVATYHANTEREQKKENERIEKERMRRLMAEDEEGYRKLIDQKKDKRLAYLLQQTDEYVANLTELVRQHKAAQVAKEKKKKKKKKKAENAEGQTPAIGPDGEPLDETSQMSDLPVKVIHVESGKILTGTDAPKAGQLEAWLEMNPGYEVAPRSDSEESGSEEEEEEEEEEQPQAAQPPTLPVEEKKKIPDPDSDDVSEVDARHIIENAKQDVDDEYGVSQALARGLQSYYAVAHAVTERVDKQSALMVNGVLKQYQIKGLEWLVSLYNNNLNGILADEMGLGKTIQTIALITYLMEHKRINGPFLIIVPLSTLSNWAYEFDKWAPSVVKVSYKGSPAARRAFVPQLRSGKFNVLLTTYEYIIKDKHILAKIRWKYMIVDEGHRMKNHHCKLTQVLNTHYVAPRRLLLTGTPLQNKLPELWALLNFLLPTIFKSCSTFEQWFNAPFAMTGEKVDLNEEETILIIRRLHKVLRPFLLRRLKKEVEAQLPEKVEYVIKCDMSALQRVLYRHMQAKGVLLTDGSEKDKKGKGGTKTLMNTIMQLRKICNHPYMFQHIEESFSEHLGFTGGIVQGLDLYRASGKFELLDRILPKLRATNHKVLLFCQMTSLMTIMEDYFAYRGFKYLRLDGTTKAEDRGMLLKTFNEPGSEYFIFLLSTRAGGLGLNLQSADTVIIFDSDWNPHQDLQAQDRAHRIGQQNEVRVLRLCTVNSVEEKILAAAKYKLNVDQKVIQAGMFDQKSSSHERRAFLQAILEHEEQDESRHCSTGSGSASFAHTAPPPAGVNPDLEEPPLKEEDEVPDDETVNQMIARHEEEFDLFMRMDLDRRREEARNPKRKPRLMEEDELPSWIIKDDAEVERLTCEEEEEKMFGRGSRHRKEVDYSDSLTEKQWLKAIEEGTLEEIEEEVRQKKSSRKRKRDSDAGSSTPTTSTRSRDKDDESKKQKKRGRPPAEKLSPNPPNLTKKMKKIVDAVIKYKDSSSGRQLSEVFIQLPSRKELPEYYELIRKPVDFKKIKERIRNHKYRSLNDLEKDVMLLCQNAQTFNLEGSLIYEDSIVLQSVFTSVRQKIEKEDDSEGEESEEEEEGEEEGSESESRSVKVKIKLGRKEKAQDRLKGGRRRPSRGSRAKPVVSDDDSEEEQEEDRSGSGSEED

Take `C[C@@H]1CCN(c2cc(-c3ccccc3O)nnc2N)CCN1c1ccnc(C#CCn2cncn2)c1` [Compound P-424, 0-{5-[(R)-5-methyl-4-{2-[3-(1H-1,2,4-triazol-1-yl)-1-propynyl]-4-pyridyl}-1,4-diazepan-1-yl]-6-amino-3-pyridaziny1} phenol]: the DC50 in assay [1] and in assay [2] was 50 to 500 nM throughout. The “SMARCA2 % Degradation @ 1 μM” value in assay [1] (1 μM) is on record as “+++ (+++=>70%)”. In assay [2] (1 μM), this molecule had an inhibition at 1 µM of 30 to 70%.

Turning to `CC(C)(C)OC(=O)NC1CCN(CC#Cc2nccc(N3C4CCC3CN(c3cnnc(-c5ccccc5O)c3)C4)n2)CC1` [Compound P-368, tert-butyl-1-[3-(4-{3-[6-(o-hydroxyphenyl)-4-pyridazinyl]-3,8-diazabicyclo[3.2.1]oct-8-y1}-2-pyrimidinyl)-2-propynyl]-4-piperidylaminoformylate], the DC50 in assay [1] and in assay [2] was 50 to 500 nM in each case. Besides, in assay [1] (@ 1 μM), the “SMARCA2 % Degradation @ 1 μM” value is on record as “++ (++=30-70%)”. The “SMARCA4 % Degradation @ 1 μM” value in assay [2] (@ 1 μM) is “++ (++=30-70%)”.

For `Nc1nnc(-c2ccccc2O)cc1N1C2CCC1CN(c1ccnc(C#CCNC(=O)c3cc4ncccn4n3)n1)C2` [Compound P-78, N-(3-(4-(8-(3-amino-6-(2-hydroxyphenyl)pyridazin-4-yl)-3,8-diazabicyclo[3.2.1]octan-3-yl)pyrimidin-2-yl)prop-y2-yn-1-l)pyrazolo[1,5-a]pyrimidine-2-carboxamide], the DC50 in assay [1] and in assay [2] was 50 to 500 nM each time. Besides, in assay [1] (@ 1 μM), the “SMARCA2 % Degradation @ 1 μM” value was “+++ (+++=>70%)”. In assay [2] (@ 1 μM), the inhibition at 1 µM lay in the range of 30 to 70%.

As to `C[C@@H]1CCN(c2cc(-c3ccccc3O)nnc2N)CCN1c1ccnc(C#CCN2CC(F)(F)C3(CCC3)C2)n1` [Compound P-209, o-{5-[(R)-4-(2-{3-(8,8-difluoro-6-aza-6-spiro[3.4]octyl)-1-propyny1}-4-pyrimidinyl)-5-methyl-1,4-diazepan-1-yl]-6-amino-3-pyridaziny1} phenol], the DC50 in assay [1] and in assay [2] was 50 to 500 nM each time. In assay [1] (@ 1 μM), the “SMARCA2 % Degradation @ 1 μM” value is reported as “++ (++=30-70%)”. Further, the inhibition at 1 µM in assay [2] (@ 1 μM) lay in the range of 30 to 70%.

As for `Cn1ccc(C(=O)NCC#Cc2nccc(N3CCN(c4cc(-c5ccccc5O)nnc4N)CC3)n2)n1` [Compound P-7, N-[3-(4-{4-[3-amino-6-(2-hydroxyphenyl)pyridazin-4-yl]piperazin-1-yl}pyrimidin-2-yl)prop-2-yn-1-yl]-1-methyl-1H-pyrazole-3-carboxamide], the values for the DC50 in assay [1] and in assay [2] were 50 to 500 nM and < 50 nM, respectively. Besides, the “SMARCA2 % Degradation @ 1 μM” value in assay [1] (@ 1 μM) is given as “++ (++=30-70%)”. In addition, in assay [2] (@ 1 μM), the inhibition at 1 µM was 30 to 70%.

`COC(=O)NCC#Cc1nccc(N2CCCN(c3cc(-c4ccccc4O)nnc3N)CC2)n1` [Compound P-353, 3-(4-{4-[3-amino-6-(o-hydroxyphenyl)-4-pyridaziny1]-1,4-diazepan-1-y1}-2-pyrimidinyl)-2-propynylaminomethylformylate]: the DC50 in assay [1] and in assay [2] was 50 to 500 nM throughout. Moreover, the “SMARCA2 % Degradation @ 1 μM” value in assay [1] (@ 1 μM) was “+++ (+++=>70%)”. In addition, the inhibition at 1 µM in assay [2] (@ 1 μM) is > 70%.

Turning to `Cn1ccc(NCC#Cc2nccc(N3CCCN(c4cc(-c5ccccc5O)nnc4N)CC3)n2)n1` [Compound P-21, 2-(6-amino-5-(4-(2-(3-((1-methyl-1H-pyrazol-3-yl)amino)prop-1-yn-1-yl)pyrimidin-4-yl)-1,4-diazepan-1-yl)pyridazin-3-yl)phenol], the DC50 in assay [1] and in assay [2] was 50 to 500 nM in each case. Moreover, the “SMARCA2 % Degradation @ 1 μM” value in assay [1] (@ 1 μM) is given as “++ (++=30-70%)”. Further, in assay [2] (@ 1 μM), the inhibition at 1 µM fell in the range of 30 to 70%.

In the case of `Nc1nnc(-c2ccccc2O)cc1N1CC2CC1CN(c1ccnc(C#CCNC(=O)c3cc4ncccn4n3)n1)C2` (centres unmarked) [Compound P-17, N-(3-(4-(6-(3-amino-6-(2-hydroxyphenyl)pyridazin-4-yl)-3,6-diazabicyclo[3.2.1]octan-3-yl)pyrimidin-2-yl)prop-2-yn-1-yl)pyrazolo[1,5-a]pyrimidine-2-carboxamide], the DC50 in assay [1] and in assay [2] was 500 to 5000 nM in each case. In assay [1] (@ 1 μM), the “SMARCA2 % Degradation @ 1 μM” value is on record as “++ (++=30-70%)”. Further, the inhibition at 1 µM in assay [2] (@ 1 μM) is 30 to 70%.
